Experimental data published in US11672810B2, “Therapeutics and methods for predicting and overcoming endocrine resistance in breast cancer” (LUNELLA BIOTECH, INC., priority 2019, dated 2023).

Legend:
MCF7-GFP cells = assay: Drug treatment of fluorescently-labeled MCF7-fibroblast co-cultures vs mono-cultures (GFP fluorescence, plate-reader); assay type: cell-based, human; conditions: 72 hours; for Sensitivity of MCF7-GFP cells in co-culture with fibroblasts relative to mono-cultures: at 500 μM drug, GFP fluorescence, hTERT-BJ1-RFP fibroblast co-culture vs MCF7-GFP mono-culture
Description: To directly test this hypothesis, a new assay system may be used to monitor the sensitivity of cancer cells to drug treatment, in the presence or absence of fibroblasts. For this purpose, hTERT-BJ1-fibroblasts expressing RFP (red fluorescent protein) and MCF7 cells expressing GFP (green fluorescent protein) were generated. Representative images of these mono-cultures are shown in FIGS. 14A (hTERT-BJ1-RFP) and 14B (MCF7-GFP). The hTERT-BJ1-fibroblasts expressing RFP and MCF7 cells expressing GFP were generated by lentiviral transduction. RFP, red fluorescent protein; GFP, green fluorescent protein.
Validation via drug treatment of fluorescently-labeled MCF7-fibroblast co-cultures: hTERT-BJ1-RFP cells and MCF7-GFP cells were first generated by stable transduction with lenti-viral vectors. Then, these cells were plated into clear flat bottom 96-well black microplates (Corning; CLS3603). Mono-cultures were generated by plating either hTERT-BJ1-RFP (8,000 cells/well) or MCF7-GFP cells (8,000 cells/well). In parallel, co-cultures were generated by co-plating hTERT-BJ1-RFP (6,000 cells/well) with MCF7-GFP (2,000 cells/well). The next day, the plates were treated with either Doxycycline or Azithromycin (or vehicle controls) and were incubated for 72 hours at 37° C. The cell culture plates were then read with a plate-reader at 545/590 nm (for RFP) and at 490/510 nm (for GFP). Background readings were subtracted from the fluorescent signal and data were then normalized to controls.

[1] = test system: MCF7-fibroblasts co-cultures; conditions: MCF7-fibroblast co-cultures; Tamoxifen, Fulvestrant; cited from earlier work

SMILES | Sensitivity of MCF7-GFP cells in co-culture with fibroblasts relative to mono-cultures (MCF7-GFP cells) [fold] | Concentration at which increased sensitivity of MCF7-GFP cells in co-culture was first observed (MCF7-GFP cells; not observed at 50 μM) [µM] | Effect on resistance of co-cultures to apoptosis induced by hormonal therapies [1]
CC[C@H]1OC(=O)[C@H](C)[C@@H](O[C@H]2C[C@@](C)(OC)[C@@H](O)[C@H](C)O2)[C@H](C)[C@@H](O[C@@H]2O[C@H](C)C[C@H](N(C)C)[C@H]2O)[C@](C)(O)C[C@@H](C)CN(C)[C@H](C)[C@@H](O)[C@]1(C)O [Azithromycin] | ~8 |  | 
C[C@H]1c2cccc(O)c2C(=O)C2=C(O)[C@]3(O)C(=O)C(C(N)=O)=C(O)[C@@H](N(C)C)[C@@H]3[C@@H](O)[C@@H]21 [Doxycycline] | ~5 | 100 | 
CN(C)C(=N)N=C(N)N [Metformin] |  |  | reversed
